Measurements published in BindingDB's records for doi:10.1021/cb300655w (Massachusetts Institute of Technology, 2013).

How the values were obtained:
[1] = biological target: T1, TGF-beta receptor type-1 (Mus musculus, UniProt Q64729)
T1 sequence (Q64729 whole entry): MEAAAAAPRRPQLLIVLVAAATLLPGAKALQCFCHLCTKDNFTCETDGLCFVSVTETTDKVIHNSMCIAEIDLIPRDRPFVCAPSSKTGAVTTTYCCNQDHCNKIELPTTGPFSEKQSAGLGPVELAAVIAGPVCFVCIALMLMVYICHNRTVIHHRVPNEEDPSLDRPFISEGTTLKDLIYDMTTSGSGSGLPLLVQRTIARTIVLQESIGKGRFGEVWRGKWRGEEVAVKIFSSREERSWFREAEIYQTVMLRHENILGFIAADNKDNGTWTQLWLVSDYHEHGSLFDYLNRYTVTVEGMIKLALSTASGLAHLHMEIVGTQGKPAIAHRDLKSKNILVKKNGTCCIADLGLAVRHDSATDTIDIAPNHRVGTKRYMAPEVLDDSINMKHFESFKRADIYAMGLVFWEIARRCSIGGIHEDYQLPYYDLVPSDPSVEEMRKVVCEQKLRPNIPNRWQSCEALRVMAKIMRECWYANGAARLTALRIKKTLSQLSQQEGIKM

[2] = biological target: T2, Serine/threonine-protein kinase receptor R3 (Mus musculus, UniProt Q61288)
T2 sequence (Q61288 whole entry): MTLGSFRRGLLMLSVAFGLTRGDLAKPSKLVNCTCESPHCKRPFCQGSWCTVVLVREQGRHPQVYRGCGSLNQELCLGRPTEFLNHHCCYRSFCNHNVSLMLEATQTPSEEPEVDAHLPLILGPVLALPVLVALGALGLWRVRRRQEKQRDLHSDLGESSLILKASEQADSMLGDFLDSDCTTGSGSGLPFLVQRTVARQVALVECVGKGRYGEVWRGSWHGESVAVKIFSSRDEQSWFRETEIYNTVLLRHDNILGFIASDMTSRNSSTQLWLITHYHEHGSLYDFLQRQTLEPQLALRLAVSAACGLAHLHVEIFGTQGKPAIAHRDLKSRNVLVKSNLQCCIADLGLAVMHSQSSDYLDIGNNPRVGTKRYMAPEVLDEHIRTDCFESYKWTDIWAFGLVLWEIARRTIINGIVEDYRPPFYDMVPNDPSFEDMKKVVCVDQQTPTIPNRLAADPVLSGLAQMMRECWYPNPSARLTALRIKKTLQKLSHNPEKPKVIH

[3] = biological target: Bone morphogenetic protein receptor type-1A (Mus musculus, UniProt P36895)
Sequence of Bone morphogenetic protein receptor type-1A (P36895 whole entry): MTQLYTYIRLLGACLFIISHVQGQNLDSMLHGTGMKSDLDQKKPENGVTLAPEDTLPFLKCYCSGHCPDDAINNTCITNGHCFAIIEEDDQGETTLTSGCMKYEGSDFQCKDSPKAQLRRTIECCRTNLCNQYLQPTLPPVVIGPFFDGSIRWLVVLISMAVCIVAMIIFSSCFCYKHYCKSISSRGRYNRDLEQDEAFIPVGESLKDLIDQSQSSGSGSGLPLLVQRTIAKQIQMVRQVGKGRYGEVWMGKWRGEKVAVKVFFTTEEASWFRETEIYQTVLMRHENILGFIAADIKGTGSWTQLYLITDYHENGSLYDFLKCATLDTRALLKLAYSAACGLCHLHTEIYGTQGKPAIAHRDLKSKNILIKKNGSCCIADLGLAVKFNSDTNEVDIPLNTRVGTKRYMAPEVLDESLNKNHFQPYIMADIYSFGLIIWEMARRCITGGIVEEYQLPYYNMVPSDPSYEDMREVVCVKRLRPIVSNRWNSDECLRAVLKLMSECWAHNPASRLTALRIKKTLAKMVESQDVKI

[4] = biological target: T3, Activin receptor type-1B (Mus musculus, UniProt Q61271)
T3 sequence (Q61271 whole entry): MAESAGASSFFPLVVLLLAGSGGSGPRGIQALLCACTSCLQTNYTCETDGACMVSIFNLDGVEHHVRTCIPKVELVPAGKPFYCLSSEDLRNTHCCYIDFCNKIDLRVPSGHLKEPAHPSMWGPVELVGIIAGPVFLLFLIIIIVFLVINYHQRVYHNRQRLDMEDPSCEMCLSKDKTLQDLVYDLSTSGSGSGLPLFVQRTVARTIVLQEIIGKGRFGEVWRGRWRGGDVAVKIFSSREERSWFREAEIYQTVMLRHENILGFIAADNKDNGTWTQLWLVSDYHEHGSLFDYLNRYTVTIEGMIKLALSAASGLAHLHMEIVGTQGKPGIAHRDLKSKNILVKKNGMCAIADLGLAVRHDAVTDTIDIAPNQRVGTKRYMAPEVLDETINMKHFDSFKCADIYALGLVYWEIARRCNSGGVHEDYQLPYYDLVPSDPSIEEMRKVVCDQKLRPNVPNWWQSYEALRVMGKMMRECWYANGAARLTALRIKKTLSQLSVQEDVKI

[5] = biological target: T4, Activin receptor type-1 (Mus musculus, UniProt P37172)
T4 sequence (P37172 whole entry): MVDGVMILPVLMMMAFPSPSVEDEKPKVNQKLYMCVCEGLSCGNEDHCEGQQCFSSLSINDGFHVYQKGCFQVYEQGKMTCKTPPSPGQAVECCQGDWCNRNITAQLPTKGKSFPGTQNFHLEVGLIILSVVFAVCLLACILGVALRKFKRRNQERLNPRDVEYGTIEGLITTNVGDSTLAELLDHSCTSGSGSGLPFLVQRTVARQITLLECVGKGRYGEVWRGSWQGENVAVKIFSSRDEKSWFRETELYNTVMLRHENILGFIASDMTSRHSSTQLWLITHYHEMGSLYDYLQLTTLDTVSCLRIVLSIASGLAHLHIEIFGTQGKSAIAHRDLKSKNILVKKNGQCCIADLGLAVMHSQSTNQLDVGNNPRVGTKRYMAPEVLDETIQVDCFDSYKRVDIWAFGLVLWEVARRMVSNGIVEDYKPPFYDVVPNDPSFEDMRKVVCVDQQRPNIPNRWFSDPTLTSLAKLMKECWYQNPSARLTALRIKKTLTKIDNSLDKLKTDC

Row | Compound | IC50 [1] | IC50 [2] | IC50 [3] | IC50 [4] | IC50 [5]
1 | c1cc(-c2cnn3cc(-c4ccc(OCCN5CCCCC5)cc4)cnc23)ccn1 | 7830 nM | 19.5 nM | 222 nM | 3080 nM | 
2 | c1ccc2c(-c3cnn4cc(-c5ccc(N6CCNCC6)cc5)cnc34)ccnc2c1 [LDN-193189] | 117 nM | 1.48 nM | 14.3 nM |  | 
3 | COc1cc(-c2cc(-c3cccc(O)c3)cnc2N)cc(OC)c1OC [K02288a] |  | 3.65 nM | 25.8 nM |  | 
4 | CC(C)Oc1ccc(-c2cnc3c(-c4ccnc5ccccc45)cnn3c2)cc1 [4-(6-(4-isopropoxyphenyl)pyrazolo[1,5-a]pyrimidin-3-yl)quinoline] | 5970 nM | 77.9 nM | 241 nM | 11000 nM | 12.6 nM
5 | c1cc(-c2cnn3cc(-c4ccc(N5CCNCC5)cc4)cnc23)c2cccnc2c1 [LDN-212854] | 9280 nM | 2.4 nM | 85.8 nM | 2130 nM | 
